Data as given in US20130189764A1, “SELECTIVE GROWTH MEDIA” (Oxide Limited, priority 2000, published 2013).
In brackets after ≈: the same amount, converted by molar mass.

Legend:
[1] = test system: K. pneumoniae CMCC 3077; test: growth on nutrient agar, mixed culture with B. subtilis (Example 8); assay type: cell-based, Klebsiella pneumoniae; conditions: K. pneumoniae in mixed culture with B. subtilis, nutrient agar
Source text: Example 6 was repeated, this time using a mixed culture of B. subtilis OCC 214 and K. pneumoniae CMCC 3077, in the presence of AEP or alaphosphin. The empty columns show the growth of B. subtilis, the shaded columns denote growth of K. pneumoniae.

[2] = test system: Enterococcus faecalis OCC 640; test: growth on nutrient agar streak plates, pure culture (Example 3); assay type: cell-based; conditions: E. faecalis OCC 640, nutrient agar, 0-10 mM tested
Source text: Example 1 was repeated using Enterococcus faecalis OCC 640 as the test organism.

[3] = test system: S. aureus OCC 102; test: growth on nutrient agar, mixed culture with K. pneumoniae (Example 6); assay type: cell-based, Staphylococcus aureus; conditions: S. aureus in mixed culture with K. pneumoniae
Source text: (§1) Example 1 was repeated, this time using a mixed culture of K. pneumoniae CMCC 3077 and S. aureus OCC 102. The results for growth in the presence of AEP or alaphosphin are shown in FIGS. 7 and 8 respectively: empty columns represent growth of S. aureus, the shaded columns represent growth of K. pneumoniae. […] Accordingly, there is a considerable alaphosphin concentration range over which S. aureus will readily grow whilst K. pneumoniae will be inhibited. Even if K. pneumoniae cells lyse due to the toxic effect of AEP released intracellularly, the AEP is not toxic for S. aureus at the concentrations involved.

[4] = test system: E. coli strains; test: inhibition of E. coli strains on DMSal agar for selective growth of Salmonella (Example 16); assay type: cell-based, Escherichia coli; conditions: DMSal agar
Description: The experiments were conducted as follows: nutrient agar medium was autoclaved and, on cooling (but prior to setting) filter-sterilised alaphosphin or AEP were incorporated at final concentrations of 1 mM, 2 mM, 5 mM and 10 mM, and the medium used to pour plates. Control plates were prepared using nutrient agar without alaphosphin or AEP. A single colony of the organism under test was inoculated in 10 ml of nutrient broth and incubated (without agitation) at 37° C. for 4 hours.
Trp-AEP was compared to alaphosphin (Ala-AEP) for selective growth of Salmonella strains on DMSal agar.

[5] = test system: Klebsiella pneumoniae CMCC3077; test: total viable count in Nutrient Broth (Example 10); assay type: cell-based; conditions: 5 mM in Nutrient Broth, within a 4 hour period
Description: Growth curve data on the activity of alaphosphin towards Klebsiella spp. was generated. Particular attention was paid to measuring the kinetics of inhibition in broth culture. The media used in this work were Buffered Peptone Water, Nutrient Broth and Tryptone Soya Agar. The media were prepared according to the manufacturer's instructions.
The selective agents, AEP (Cat. No. 06655) and alaphosphin (Cat. No. 05260), were supplied by Fluka. They were dissolved in water at 0.5M concentration, filter-sterilised, and 100 μl added to 10 ml of Nutrient Broth to give a final concentration in the test medium of 5 mM of AEP or alaphosphin respectively.
Klebsiella pneumnoniae CMCC3077 was chosen, as it is a food isolate and work had been carried out previously on this organism using alaphosphin and AEP (see preceding examples). The organism was inoculated into Nutrient Broth and incubated overnight at 37° C. […] The test media were incubated at 37° C., and sampled at hourly intervals. The cultures were serially diluted in Buffered Peptone Water and inoculated onto Tryptone Soya Agar. These plates were incubated overnight at 37° C. and the total viable count made the next day.
Typical results are shown in FIG. 15 which is a graph of total viable count (log10 cfu/ml) against time (hours).

[6] = test system: Salmonella typhimurium 722; test: MIC in DMSal medium (Example 17); assay type: cell-based; conditions: Salmonella enterica, TYPHIMURIUM
Description: Isoleucyl-AEP and sarcosyl-alanyl-AEP were compared to ala-AEP (all in DMSal medium) for the ability to selectively recover two clinically important pathogenic bacteria: Salmonella and Staphylococcus aureus.
For selective growth of Salmonella inhibition of Citrobacter, Enterobacter sakazakii and E. coli is important. […] Sarcosyl-alanyl-AEP used at a concentration of 1.0 μg/ml is sufficient to inhibit the growth of all three undesired bacteria while having no effect on growth of Salmonella typhimurium. […] Alternatively, a concentration of 2.0 μg/ml of isoleucyl-AEP is required to inhibit the growth of Citrobacter, Enterobacter sakazakii and E. coli and this concentration has no effect on the Salmonella typhimurium strain tested.

[7] = test system: Enterococcus faecalis 501; test: MIC in DMSal medium (Example 17); assay type: cell-based; conditions: Enterococcus faecalis, 501
[8] = test system: K. pneumoniae CMCC 3077; test: growth on nutrient agar, mixed culture with S. aureus (Example 6); assay type: cell-based, Klebsiella pneumoniae; conditions: K. pneumoniae in mixed culture with S. aureus
Source text: as §1

[9] = test system: Bacillus subtilis strain OCC 214; test: growth on nutrient agar streak plates, pure culture (Example 1); assay type: cell-based; conditions: B. subtilis OCC214, nutrient agar, 0-10 mM tested
Source text: In example 1 the sensitivity of Bacillus subtilis strain OCC 214 to alaphosphin or AEP was investigated. […] The organism is known to be LALA-ve, so the observations agree with the known characteristics of the organism.

[10] = test system: Klebsiella pneumoniae CMCC 3077; test: growth on nutrient agar streak plates, pure culture (Example 4); assay type: cell-based; conditions: K. pneumoniae CMCC 3077, nutrient agar, 0-10 mM tested
Source text: Example 1 was repeated using Klebsiella pneumoniae CMCC 3077 as the test organism. The results are shown in FIG. 5, and are qualitatively similar to those obtained in example 2.

[11] = test system: Salmonella typhimurium OCC 722; test: Bioscreen growth, comparison with conventional selective agents (Example 12); assay type: cell-based; conditions: 60 μg/ml alaphosphin, Lab-Lemco broth + phosphate buffer pH 6.0
Description: The following is an example to illustrate the beneficial lower toxic properties of the new selective agents towards the target microorganism, in this case Salmonella. Two selective agents, cefsulodin and novobiocin, as used conventionally in Salmonella isolation from foods (Humphrey and Whitehead, 1992 British Poultry Science 33, 761-768) were compared with alaphosphin. All were dissolved in deionised water, filter sterilised, and an amount of the solution added to either autoclaved Lab-Lemco broth+phosphate buffer (20 g/l; pH 6.0; ala-AEP) or Buffered Peptone Water (pH 6.8; cefsulodin and novobiocin) to give final concentrations of 66, 16.5 and 11 μg/ml respectively. [The different pH values reflect the different pH optima of the selective agents (ala-AEP was also subsequently used in BPW at pH 6.8 and similar results obtained)]. Volumes (300 μl) were then pipetted into the wells of Bioscreen microtitre plates and 30 μl quantities of 1 in 10,000 dilutions of overnight cultures of E. coli OCC 2129 and Salmonella typhimurium OCC 722, added. Plates were then covered, incubated at 37° C., and the opacity of the organism suspensions measured using a Bioscreen instrument.
Typical results are shown in FIGS. 17-19, which are graphs of optical density against time for S. typhimurium (circles) and E. coli (squares) in the presence (empty symbols) or absence (filled symbols) of 15 μg/ml cefsulodin (FIG. 17), 10 μg/ml novobiocin (FIG. 18) or 60 μg/ml alaphosphin (FIG. 19).

C[C@H](N)C(=O)N[C@@H](C)P(=O)(O)O [alaphosphin, L-alanyl-L-1-aminoethylphosphonic acid]
concentration at which growth is completely inhibited [1]: ≥ 2 mM
concentration at which growth is completely inhibited [2]: ≥ 2 mM
concentration at which growth is inhibited [3]: 10 mM
concentration needed to inhibit the growth of E. coli strains [4]: 1.5 µg/mL
reduction in the viable count [5]: two to three log reduction
MIC [6]: 2 µg/mL (≈ 10.2 µM)
MIC [7]: 10 µg/mL (≈ 51 µM)
concentration at which growth is completely inhibited [8]: above 1 mM
sensitivity of growth (in words) [9]: completely insensitive
concentration at which growth is completely inhibited [10]: ≥ 2 mM
effect on growth of S. typhimurium [11]: no significant difference
